In patent publication US20260193268A1, “TRICYCLIC PI3Ka INHIBITOR, PREPARATION METHOD THEREFOR, AND PHARMACEUTICAL USE THEREOF” (WIGEN BIOMEDICINE TECHNOLOGY (SHANGHAI) CO., LTD., priority 2022, published 2026):
Read-outs that look alike come from different tables or passages of the source.

Legend:
[1] = system: HCC1954 cells (with PI3Kα H1047R mutation); experiment: In vitro inhibition of HCC1954 cell proliferation (CellTiter-Lumi); format: cell-based; settings: Homo sapiens, HCC1954, 144 h, read-out: Inhibitory activity against HCC1954 cells (IC50)
Method: Assay for In Vitro Inhibition of HCC1954 Cell Proliferation by Compounds of the Present Disclosure
The growth of the cells was evaluated, and the IC50 for the inhibition of cell growth by the compounds was calculated.

[2] = system: MCF-7 cells (with PI3Kα E545K mutation); experiment: In vitro inhibition of MCF-7 cell proliferation (CellTiter-Lumi); format: cell-based; settings: Homo sapiens, MCF7, 144 h, numeric values, read-out: Inhibitory activity against MCF-7 cells (IC50)
Method: Biological Example 3. Assay for In Vitro Inhibition of MCF-7 Cell Proliferation by Compounds of the Present Disclosure
MCF-7 cells (with PI3Kα E545K mutation) were seeded into a 384-well plate (Fisher 142762) at 2000 cells per well. The next day, serially diluted compounds were added, and 144 h after the addition, CellTiter-Lumi (Beyotime C0068XL) was added to measure the ATP content in the cells. The growth of the cells was evaluated, and the IC50 for the inhibition of cell growth by the compounds was calculated.

[3] = HCC1954 cells, 144 h, CellTiter-Lumi, numeric values

Compound | IC50 [1, 3] [nM] | IC50 [2] [nM] | IC50 [1] [nM]
C=CC(=O)Nc1ccc(N2CC(CN3CC4(C3)CN(c3ccc5c(c3)-c3nc(N6C(=O)OC[C@H]6C(F)F)cn3CCO5)C4)C2)cc1 [Compound 25] | > 1000 | 390 | 
C=CC(=O)N1CCN(CCCCN2CCN(c3ccc4c(c3)-c3nc(N5C(=O)OC[C@H]5C(F)F)cn3CCO4)CC2)CC1 [Compound 26] | 248 | 83 | 
C=CC(=O)N1CC[C@@H](CN2CC(CN3CCN(c4ccc5c(c4)-c4nc(N6C(=O)OC[C@H]6C(F)F)cn4CCO5)CC3)C2)C1 [Compound 37] | 750 | 75 | 
C=CC(=O)Nc1ccc(CN2CC3(C2)CN(c2ccc4c(c2)-c2nc(N5C(=O)OC[C@H]5C(F)F)cn2CCO4)C3)cc1 [Compound 40] | 162 | 34 | 
C=CC(=O)Nc1ccc(CN2C[C@@H]3CN(c4ccc5c(c4)-c4nc(N6C(=O)OC[C@H]6C(F)F)cn4CCO5)C[C@@H]3C2)cc1 [Compound 41] | 191 | 40 | 
C=CC(=O)Nc1ccc(CN2CC3(CCN(c4ccc5c(c4)-c4nc(N6C(=O)OC[C@H]6C(F)F)cn4CCO5)CC3)C2)cc1 [Compound 43] | 184 | 19 | 
C=C(C)C(=O)Nc1ccc(N2CC(CN3CCN(c4ccc5c(c4)-c4nc(N6C(=O)OC[C@H]6C(F)F)cn4CCO5)CC3)C2)cc1 [Compound 45] | > 1000 | 244 | 
C=C(F)C(=O)Nc1ccc(N2CC(CN3CCN(c4ccc5c(c4)-c4nc(N6C(=O)OC[C@H]6C(F)F)cn4CCO5)CC3)C2)cc1 [Compound 46] | 306 | 74 | 
C=CC(=O)N1CCC(N2CC[C@H](CN3CCN(c4ccc5c(c4)-c4nc(N6C(=O)OC[C@H]6C(F)F)cn4CCO5)CC3)C2)CC1 [Compound 59] | 872 | 197 | 
C=CC(=O)N1CC(N2CC(CN3CCN(c4ccc5c(c4)-c4nc(N6C(=O)OC[C@H]6C(F)F)cn4CCO5)CC3)C2)C1 [Compound 60] | 174 | 13 | 
C=CC(=O)N1CC(CN2CCC(N3CCN(c4ccc5c(c4)-c4nc(N6C(=O)OC[C@H]6C(F)F)cn4CCO5)CC3)CC2)C1 [Compound 64] | 314 | 33 | 
C=CC(=O)N1CC(C(=O)N2CC3(CCN(c4ccc5c(c4)-c4nc(N6C(=O)OC[C@H]6C(F)F)cn4CCO5)CC3)C2)C1 [Compound 86] | 126 | 17 | 
C=CC(=O)N1CC(N2CC[C@@H](CN3CCN(c4ccc5c(c4)-c4nc(N6C(=O)OC[C@H]6C(F)F)cn4CCO5)CC3)C2)C1 [Compound 87] | 318 | 37 | 
C=CC(=O)N1CC(N2CCC(CN3CC=C(c4ccc5c(c4)-c4nc(N6C(=O)OC[C@H]6C(F)F)cn4CCO5)CC3)CC2)C1 [Compound 88] | 212 | 32 | 
C=CC(=O)N1CCC(N2CCC(N3CCN(c4ccc5c(c4)-c4nc(N6C(=O)OC[C@H]6C(F)F)cn4CCO5)CC3)C2)CC1 (stereo partly drawn) [Compound 89] | 230 | 41 | 
C=CC(=O)N1CC(N2CCC(N3CCN(c4ccc5c(c4)-c4nc(N6C(=O)OC[C@H]6C(F)F)cn4CCO5)CC3)C2)C1 (stereo partly drawn) [Compound 90] | 225 | 12 | 
C=CC(=O)N1CC(CN2CC(N3CCN(c4ccc5c(c4)-c4nc(N6C(=O)OC[C@H]6C(F)F)cn4CCO5)CC3)C2)C1 [Compound 91] | 154 | 11 | 
C=CC(=O)N1CC(N2CC[C@H](CN3CCN(c4ccc5c(c4)-c4nc(N6C(=O)OC[C@H]6C(F)F)cn4CCO5)CC3)C2)C1 [Compound 92] | 200 | 20 | 
C=CC(=O)Nc1ccc(N2CC3(CCN(c4ccc5c(c4)-c4nc(N6C(=O)OC[C@H]6C(F)F)cn4CCO5)C3)C2)cc1 [Compound 93] | 551 | 76 | 
C=CC(=O)Nc1ccc(N2CCC3(CCN(c4ccc5c(c4)-c4nc(N6C(=O)OC[C@H]6C(F)F)cn4CCO5)CC3)C2)cc1 [Compound 94] | 300 | 76 | 
C=CC(=O)Nc1ccc(N2CC(N3CC=C(c4ccc5c(c4)-c4nc(N6C(=O)OC[C@H]6C(F)F)cn4CCO5)CC3)C2)cc1 [Compound 103] | 23 | 2 | 
C=CC(=O)N1CCC(N2CC(N3CCN(c4ccc5c(c4)-c4nc(N6C(=O)OC[C@H]6C(F)F)cn4CCO5)CC3)C2)CC1 [Compound 105] | 620 | 23 | 
C=CC(=O)Nc1ccc(N2CC(N3CCC4(c5ccc6c(c5)-c5nc(N7C(=O)OC[C@H]7C(F)F)cn5CCO6)CC4C3)C2)cc1 (stereo partly drawn) [Compound 107] |  | 16 | 131
C=CC(=O)Nc1ccc(N2CC(N3CCN(c4ccc5c(c4)-c4nc(-c6nc(C)nn6C(C)C)cn4CCO5)CC3)C2)cc1 [Compound 111] | 2.5 | 0.1 | 
CC(C)(C)C=C(C#N)C(=O)Nc1ccc(N2CC(N3CCN(c4ccc5c(c4)-c4nc(N6C(=O)OC[C@H]6C(F)F)cn4CCO5)CC3)C2)cc1 [Compound 136] | 71 | 29 | 
CC(C)(N)C=C(C#N)C(=O)Nc1ccc(N2CC(N3CCN(c4ccc5c(c4)-c4nc(N6C(=O)OC[C@H]6C(F)F)cn4CCO5)CC3)C2)cc1 [Compound 137] | 0.6 | 0.1 | 

Continued, in another order:

IC50 [1, 3] [nM] | IC50 [2] [nM] | Compound | IC50 [1] [nM]
180 | 18 | C=CC(=O)Nc1ccc(N2CCC(N3CCN(c4ccc5c(c4)-c4nc(N6C(=O)OC[C@H]6C(F)F)cn4CCO5)CC3)C2)cc1 (stereo partly drawn) [Compound 28] | 
68 | 11 | C=CC(=O)Nc1ccc(CN2CC(N3CCN(c4ccc5c(c4)-c4nc(N6C(=O)OC[C@H]6C(F)F)cn4CCO5)CC3)C2)cc1 [Compound 39] | 
644 | 151 | C=CC(=O)Nc1ccc(CN2CCN(c3ccc4c(c3)-c3nc(N5C(=O)OC[C@H]5C(F)F)cn3CCO4)CC2)cc1 [Compound 44] | 
303 | 88 | C=CC(=O)Nc1ccc(N2CC[C@@H](CN3CCN(c4ccc5c(c4)-c4nc(N6C(=O)OC[C@H]6C(F)F)cn4CCO5)CC3)C2)cc1 [Compound 85] | 
59 | 6.7 | C=CC(=O)Nc1ccc(N2CC(N3CCN(c4cc5c(cc4OC)OCCn4cc(N6C(=O)OC[C@H]6C(F)F)nc4-5)CC3)C2)cc1 [Compound 98] | 
53 | 11 | C=C(F)C(=O)Nc1ccc(N2CC(N3CCN(c4ccc5c(c4)-c4nc(N6C(=O)OC[C@H]6C(F)F)cn4CCO5)CC3)C2)cc1 [Compound 99] | 
66 | 22 | C=C(C)C(=O)Nc1ccc(N2CC(N3CCN(c4ccc5c(c4)-c4nc(N6C(=O)OC[C@H]6C(F)F)cn4CCO5)CC3)C2)cc1 [Compound 100] | 
83 | 38 | C/C=C/C(=O)Nc1ccc(N2CC(N3CCN(c4ccc5c(c4)-c4nc(N6C(=O)OC[C@H]6C(F)F)cn4CCO5)CC3)C2)cc1 [Compound 101] | 
232 | 23 | C=CC(=O)Nc1ccc(N2CC(N3CCN(c4cc5c(cc4F)OCCn4cc(N6C(=O)OC[C@H]6C(F)F)nc4-5)CC3)C2)cc1 [Compound 102] | 
65 | 4.6 | C=CC(=O)Nc1ccc(N2CC(N3CCC(c4ccc5c(c4)-c4nc(N6C(=O)OC[C@H]6C(F)F)cn4CCO5)CC3)C2)cc1 [Compound 104] | 
6 | 0.14 | C=CC(=O)Nc1ccc(N2CC(N3CCN(c4ccc5c(c4)-c4nc(N6C(=O)SC[C@H]6C(F)F)cn4CCO5)CC3)C2)cc1 [Compound 106] | 
3 | 0.2 | C=CC(=O)Nc1ccc(N2CC(N3CCN(c4ccc5c(c4)-c4nc(N6C(=O)OC[C@H]6C(F)F)cn4CCO5)CC3)C2)cn1 [Compound 121] | 
7 | 0.4 | C=CC(=O)Nc1ccc(N2CC(N3CCN(c4ccc5c(c4)-c4nc(N6C(=O)OC[C@H]6C(F)F)cn4CCO5)CC3)C2)nc1 [Compound 122] | 
5.3 | 0.9 | C=CC(=O)Nc1ccc(N2CC(N3CCN(c4ccc5c(c4)-c4nc(N6C(=O)OC[C@H]6C(F)F)cn4CCO5)CC3)C2)c(F)c1 [Compound 123] | 
9 | 2.7 | C=CC(=O)Nc1ccc(N2CC(N3CCN(c4ccc5c(c4)-c4nc(N6C(=O)OC[C@H]6C(F)F)cn4CCO5)CC3)C2)cc1F [Compound 124] | 
6.9 | 0.3 | C=CC(=O)Nc1ccc(N2CC(N3CCN(c4ccc5c(c4)-c4nc(N6C(=O)OC[C@H]6C(F)F)cn4CCO5)CC3)C2)c(C)c1 [Compound 129] | 
70 | 14 | C=CC(=O)Nc1ccc(N2CC(C3CCN(c4ccc5c(c4)-c4nc(N6C(=O)OC[C@H]6C(F)F)cn4CCO5)CC3)C2)cc1 [Compound 130] | 
84 | 15 | C=CC(=O)Nc1ccc(N2CC(N3CCN(c4ccc5c(c4)-c4nc(N6C(=O)OC[C@H]6C)cn4CCO5)CC3)C2)cc1 [Compound 131] | 
45 | 3.3 | CC#CC(=O)Nc1ccc(N2CC(N3CCN(c4ccc5c(c4)-c4nc(N6C(=O)OC[C@H]6C(F)F)cn4CCO5)CC3)C2)cc1 [Compound 132] | 
4.3 | 0.4 | C=CC(=O)Nc1cnc(N2CC(N3CCN(c4ccc5c(c4)-c4nc(N6C(=O)OC[C@H]6C(F)F)cn4CCO5)CC3)C2)nc1 [Compound 133] | 
2.7 | 0.2 | C=CC(=O)N1CCc2cc(N3CC(N4CCN(c5ccc6c(c5)-c5nc(N7C(=O)OC[C@H]7C(F)F)cn5CCO6)CC4)C3)ccc21 [Compound 134] | 
16 | 1.5 | C=CC(=O)Nc1cc(N2CC(N3CCN(c4ccc5c(c4)-c4nc(N6C(=O)OC[C@H]6C(F)F)cn4CCO5)CC3)C2)n(C)n1 [Compound 135] | 
